# Data: US8785457B2 (Cellzome Limited, priority 2009, dated 2014)
# Like-named read-outs stand apart in the source and are kept apart here.
# Key:
# [1] = target: T1, PI3K delta (PI3 Kd) (Homo sapiens, UniProt O00329); assay: kinobeads assay, PI3K delta; format: binding
# T1 construct: endogenous in cells; host or cells: Jurkat, clone E6-1 (ATCC TIB-152) cell lysate
# Method in brief: (§1)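 Competitive binding in Jurkat cell lysate (5 mg/mL protein) against beads carrying an immobilized phenylmorpholin-chromen ligand, in DP buffer pH 7.4 with NP40, DTT and NaF. Bead-bound kinases were eluted and quantified by antibody dot blot with infrared detection, and IC50 was taken from dose-response curves of a 1:3 dilution series.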
# [2] = target: T2, DNA-dependent protein kinase (DNA-PK) (Homo sapiens, UniProt P78527); assay: kinobeads assay, DNA-PK; format: binding
# T2 construct: endogenous in cells; host or cells: Jurkat, clone E6-1 (ATCC TIB-152) cell lysate
# Method in brief: as §1
# [3] = target: T3, PI3Kalpha (PI3Ka) (Homo sapiens, UniProt P42336); assay: kinobeads assay, PI3Kalpha; format: binding; conditions: for Inhibition values (IC50) PI3Ka: kinobeads assay, Table 6
# T3 construct: endogenous in cells; host or cells: cell lysate
# Method in brief: (§2)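 IC50s are fitted to per-kinase dose-response curves. Kinases retained on phenylmorpholin-chromen affinity beads are read by multiplexed immunodetection after elution. Compound, added at a range of concentrations straight into cell lysate, competes for this bead capture.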
# [4] = target: T4, PI3 Kbeta (PI3 Kb) (Homo sapiens, UniProt P42338); assay: kinobeads assay, PI3Kbeta; format: binding
# T4 construct: endogenous in cells; host or cells: cell lysate
# Method in brief: as §2
# [5] = target: T5, PI3 Kgamma (PI3 Kg) (Homo sapiens, UniProt P48736); assay: kinobeads assay, PI3Kgamma; format: binding
# T5 construct: endogenous in cells; host or cells: cell lysate
# Method in brief: as §2
# [6] = system: S6RP serine-240/244 phosphorylation; assay: In vitro Phospho-S6 cellular assay (pS6RP S240/244) in HEK293T/17 cells; format: cell-based; conditions: Homo sapiens, 2 hours, read-out: pS6 IC50
# Description: Activation of mTOR signaling results in phosphorylation of several downstream targets. In cells, mTOR exists in two different protein complexes. The mTOR Complex-1 (mTORC1) phosphorylates and activates S6 Kinase 1 (S6K1) and S6 Kinase 2 (S6K2) (also known as p70S6K) which then phosphorylate S6 Ribosomal Protein (S6RP) (also known as RPS6)3. S6RP is phosphorylated on serine 235, serine 236, serine 240 and serine 244 by both pS6K1 and pS6K2. The mTOR Complex-2 (mTORC2) phosphorylates AKT on serine 473 which activates the AKT signaling pathway.
# The assay measures a test compound's inhibition of S6RP serine-240/244 phosphorylation and inhibition of Akt serine-473 phosphorylation in human embryonic kidney derived HEK293T/17 cells (ATCC CRL-11268).
# The HEK293T/17 cell line is maintained in DMEM media (Invitrogen catalogue number 41965-039) supplemented with 10% FCS at 37° C. in a 5% CO2 humidified incubator.
# Cells are seeded in 96-well plates at 40,000 cells/well (pS6RP S240/244 assay) or 80,000 cells/well (pAkt S473 assay) in 90 μl growth media (DMEM, 2% FCS). Plates are incubated for 1 hour in a humidified incubator to allow the cells to adhere. Cells are treated with 8 concentrations of test compounds or DMSO alone for controls (final DMSO concentration 0.1%) and incubated at 37° C. for 2 hours. Then 20 μl of 5× concentrated lysis buffer (750 mM NaCl, 100 mM Tris pH7.4, 5 mM ADTA, 5 mM EGTA, 5% Triton X-100) is added, plates are sealed and incubated for 15 minutes at 4° C. with gentle shaking. After cell lysis, 25 μl cell lysate is transferred to a MesoScale plate coated with an antibody to pS6RP Ser240/244 (MesoScale Discovery K150DGD-3) or an antibody to pAkt Ser 473 (MesoScale Discovery K151DGD-3). Plates have been blocked before by incubation with 150 μl MesoScale Discovery Blocking Solution-A for 1 hour at room temperature followed by washing with 150 μl 1× Tris wash buffer per well. After the transfer of the cell lysate to the MSD plate, the pS6RP (or pAkt) protein is captured on the coated antibody by incubation at room temperature for 1 hour with gentle shaking. After the capture step the plate is washed three times with 150 μl of 1× Tris wash buffer per well. Then 25 μl detection antibody conjugated with a Sulfo-Tag is added and incubated for 1 hour at room temperature with gentle shaking. Subsequently the antibody solution is removed and the plate is washed 3 times with 150 μl×Tris wash buffer per well and 150 μl Read buffer is added. The plates are analysed on a MSD 2400 Plate Reader (MesoScale Discovery). Data analysis is performed using nonlinear regression for a sigmoidal dose-response with a variable slope.
# [7] = target: T6, mTOR (Homo sapiens, UniProt P42345); assay: mTOR kinobeads assay (competitive binding in Jurkat cell lysate, immunodetection); conditions: Further Kinobeads Data; read-out: mTor
# T6 construct: endogenous in cells; host or cells: Jurkat, clone E6-1 (ATCC TIB-152) cell lysate
# Method in brief: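 IC50 derived from dose-response curves of mTOR captured on immobilized phenylmorpholin-chromen beads, detected by antibody dot blot with infrared fluorescence.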
# [8] = kinobeads assay, Table 6, read-out: Inhibition values (IC50) PI3Kd
# [9] = kinobeads assay, Table 6, read-out: Inhibition values (IC50) DNAPK
# [10] = kinobeads assay, Table 6, read-out: Inhibition values (IC50) PI3Kb
# [11] = kinobeads assay, Table 6, read-out: Inhibition values (IC50) PI3Kg
# T5 sequence (P48736 whole entry): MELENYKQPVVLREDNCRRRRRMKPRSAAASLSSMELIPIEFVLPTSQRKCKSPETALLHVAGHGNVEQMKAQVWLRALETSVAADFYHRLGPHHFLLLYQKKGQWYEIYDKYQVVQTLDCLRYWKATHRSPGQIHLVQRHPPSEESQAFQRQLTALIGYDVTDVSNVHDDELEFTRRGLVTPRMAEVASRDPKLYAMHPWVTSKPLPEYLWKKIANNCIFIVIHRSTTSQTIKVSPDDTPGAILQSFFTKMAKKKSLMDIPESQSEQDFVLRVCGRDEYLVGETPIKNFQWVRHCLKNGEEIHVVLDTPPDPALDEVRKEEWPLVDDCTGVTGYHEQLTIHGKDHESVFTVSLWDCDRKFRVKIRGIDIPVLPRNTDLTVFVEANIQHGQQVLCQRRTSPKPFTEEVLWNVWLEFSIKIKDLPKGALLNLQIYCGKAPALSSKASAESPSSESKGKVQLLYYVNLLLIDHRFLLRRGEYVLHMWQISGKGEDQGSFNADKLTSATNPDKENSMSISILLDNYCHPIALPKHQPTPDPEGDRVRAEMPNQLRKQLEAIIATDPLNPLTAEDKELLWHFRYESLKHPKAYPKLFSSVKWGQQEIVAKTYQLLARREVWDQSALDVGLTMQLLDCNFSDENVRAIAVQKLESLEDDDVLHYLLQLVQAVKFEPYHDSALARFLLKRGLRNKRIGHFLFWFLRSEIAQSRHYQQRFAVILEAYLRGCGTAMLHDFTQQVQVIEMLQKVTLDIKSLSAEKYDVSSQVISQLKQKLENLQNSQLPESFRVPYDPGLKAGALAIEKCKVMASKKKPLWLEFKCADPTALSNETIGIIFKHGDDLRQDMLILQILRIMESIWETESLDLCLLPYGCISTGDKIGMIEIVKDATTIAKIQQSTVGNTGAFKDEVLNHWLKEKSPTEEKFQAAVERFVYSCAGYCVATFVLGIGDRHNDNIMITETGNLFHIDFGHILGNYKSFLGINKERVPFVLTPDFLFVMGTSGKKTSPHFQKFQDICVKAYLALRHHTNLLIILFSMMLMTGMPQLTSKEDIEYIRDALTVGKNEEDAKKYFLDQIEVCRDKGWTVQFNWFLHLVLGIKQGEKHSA
# T4 sequence (P42338 whole entry): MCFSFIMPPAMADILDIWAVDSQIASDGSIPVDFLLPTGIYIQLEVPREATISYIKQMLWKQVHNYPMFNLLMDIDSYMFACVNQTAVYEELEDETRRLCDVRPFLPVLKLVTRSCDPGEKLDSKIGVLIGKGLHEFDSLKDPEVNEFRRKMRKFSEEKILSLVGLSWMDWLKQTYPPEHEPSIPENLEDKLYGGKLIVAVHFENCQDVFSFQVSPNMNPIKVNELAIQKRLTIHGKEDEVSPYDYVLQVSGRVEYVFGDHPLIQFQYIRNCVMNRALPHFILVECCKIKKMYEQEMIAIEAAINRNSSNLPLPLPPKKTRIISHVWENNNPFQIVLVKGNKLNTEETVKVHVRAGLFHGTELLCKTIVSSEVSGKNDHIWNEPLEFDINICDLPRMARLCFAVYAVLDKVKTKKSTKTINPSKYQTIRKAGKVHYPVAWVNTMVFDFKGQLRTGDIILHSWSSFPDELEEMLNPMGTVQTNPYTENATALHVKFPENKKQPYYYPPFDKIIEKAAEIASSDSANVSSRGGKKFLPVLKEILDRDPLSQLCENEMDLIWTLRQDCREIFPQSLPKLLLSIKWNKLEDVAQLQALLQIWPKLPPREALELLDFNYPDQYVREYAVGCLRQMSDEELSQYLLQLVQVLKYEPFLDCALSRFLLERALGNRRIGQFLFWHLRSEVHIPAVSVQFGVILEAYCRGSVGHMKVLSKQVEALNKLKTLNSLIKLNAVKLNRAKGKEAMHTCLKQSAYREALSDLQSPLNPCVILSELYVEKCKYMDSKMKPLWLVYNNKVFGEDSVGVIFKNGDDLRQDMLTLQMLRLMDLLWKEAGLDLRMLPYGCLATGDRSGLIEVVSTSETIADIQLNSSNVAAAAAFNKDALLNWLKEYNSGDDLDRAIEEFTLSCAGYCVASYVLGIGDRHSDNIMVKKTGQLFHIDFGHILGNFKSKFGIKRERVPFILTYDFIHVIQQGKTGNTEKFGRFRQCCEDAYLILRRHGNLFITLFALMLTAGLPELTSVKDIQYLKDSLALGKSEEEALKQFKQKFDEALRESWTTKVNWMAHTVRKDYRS
# T4 sequence (P27986 whole entry partner): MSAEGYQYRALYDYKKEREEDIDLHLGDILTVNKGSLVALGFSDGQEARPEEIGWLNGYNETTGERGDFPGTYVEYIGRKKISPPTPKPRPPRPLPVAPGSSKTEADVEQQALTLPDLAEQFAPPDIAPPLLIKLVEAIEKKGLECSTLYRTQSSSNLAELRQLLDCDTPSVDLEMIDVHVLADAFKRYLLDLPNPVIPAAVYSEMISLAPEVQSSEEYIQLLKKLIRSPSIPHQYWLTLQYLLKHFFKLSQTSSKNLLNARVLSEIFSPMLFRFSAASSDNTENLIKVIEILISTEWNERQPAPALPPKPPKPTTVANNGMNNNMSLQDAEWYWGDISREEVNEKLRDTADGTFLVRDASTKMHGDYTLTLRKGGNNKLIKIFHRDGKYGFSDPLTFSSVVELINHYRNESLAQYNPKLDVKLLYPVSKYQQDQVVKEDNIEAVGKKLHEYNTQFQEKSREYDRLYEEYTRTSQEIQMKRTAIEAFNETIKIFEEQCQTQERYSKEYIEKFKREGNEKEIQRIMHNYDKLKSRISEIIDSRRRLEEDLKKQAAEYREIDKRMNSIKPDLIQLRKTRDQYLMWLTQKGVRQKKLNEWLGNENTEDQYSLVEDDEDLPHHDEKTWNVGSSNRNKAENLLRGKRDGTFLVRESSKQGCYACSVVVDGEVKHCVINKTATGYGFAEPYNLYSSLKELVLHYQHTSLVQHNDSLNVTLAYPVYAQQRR
# T3 sequence (P42336 whole entry): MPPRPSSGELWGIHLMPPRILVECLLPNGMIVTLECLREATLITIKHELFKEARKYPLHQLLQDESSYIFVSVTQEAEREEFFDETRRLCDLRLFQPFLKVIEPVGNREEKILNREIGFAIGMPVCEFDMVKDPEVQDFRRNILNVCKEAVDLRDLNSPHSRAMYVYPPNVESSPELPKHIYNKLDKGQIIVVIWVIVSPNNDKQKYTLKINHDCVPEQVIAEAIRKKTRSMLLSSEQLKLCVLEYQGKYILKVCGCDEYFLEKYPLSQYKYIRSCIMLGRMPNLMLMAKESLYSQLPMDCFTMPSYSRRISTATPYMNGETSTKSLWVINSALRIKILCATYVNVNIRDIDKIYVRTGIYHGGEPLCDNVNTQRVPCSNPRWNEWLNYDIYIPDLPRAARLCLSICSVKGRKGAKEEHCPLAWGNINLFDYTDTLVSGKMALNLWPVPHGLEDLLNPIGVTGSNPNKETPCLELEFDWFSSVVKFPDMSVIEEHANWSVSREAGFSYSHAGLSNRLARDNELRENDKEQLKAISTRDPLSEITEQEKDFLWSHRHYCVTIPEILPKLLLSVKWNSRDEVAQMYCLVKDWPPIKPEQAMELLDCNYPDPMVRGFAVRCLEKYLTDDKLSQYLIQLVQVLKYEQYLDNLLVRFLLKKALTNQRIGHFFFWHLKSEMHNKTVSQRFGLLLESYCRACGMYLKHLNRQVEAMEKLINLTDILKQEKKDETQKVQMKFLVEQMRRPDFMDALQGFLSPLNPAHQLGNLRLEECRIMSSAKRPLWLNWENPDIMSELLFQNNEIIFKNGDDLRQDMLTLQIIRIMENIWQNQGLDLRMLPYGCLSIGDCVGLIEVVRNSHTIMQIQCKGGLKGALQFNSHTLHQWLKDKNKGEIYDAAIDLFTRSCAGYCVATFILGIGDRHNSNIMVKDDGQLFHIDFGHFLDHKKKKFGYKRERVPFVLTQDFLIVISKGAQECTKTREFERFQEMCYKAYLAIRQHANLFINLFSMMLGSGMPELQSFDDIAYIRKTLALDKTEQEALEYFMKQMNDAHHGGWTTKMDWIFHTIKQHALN
# T3 sequence (P27986 whole entry partner): as the sequence (P27986 whole entry partner) above
# T1 sequence (O00329 whole entry): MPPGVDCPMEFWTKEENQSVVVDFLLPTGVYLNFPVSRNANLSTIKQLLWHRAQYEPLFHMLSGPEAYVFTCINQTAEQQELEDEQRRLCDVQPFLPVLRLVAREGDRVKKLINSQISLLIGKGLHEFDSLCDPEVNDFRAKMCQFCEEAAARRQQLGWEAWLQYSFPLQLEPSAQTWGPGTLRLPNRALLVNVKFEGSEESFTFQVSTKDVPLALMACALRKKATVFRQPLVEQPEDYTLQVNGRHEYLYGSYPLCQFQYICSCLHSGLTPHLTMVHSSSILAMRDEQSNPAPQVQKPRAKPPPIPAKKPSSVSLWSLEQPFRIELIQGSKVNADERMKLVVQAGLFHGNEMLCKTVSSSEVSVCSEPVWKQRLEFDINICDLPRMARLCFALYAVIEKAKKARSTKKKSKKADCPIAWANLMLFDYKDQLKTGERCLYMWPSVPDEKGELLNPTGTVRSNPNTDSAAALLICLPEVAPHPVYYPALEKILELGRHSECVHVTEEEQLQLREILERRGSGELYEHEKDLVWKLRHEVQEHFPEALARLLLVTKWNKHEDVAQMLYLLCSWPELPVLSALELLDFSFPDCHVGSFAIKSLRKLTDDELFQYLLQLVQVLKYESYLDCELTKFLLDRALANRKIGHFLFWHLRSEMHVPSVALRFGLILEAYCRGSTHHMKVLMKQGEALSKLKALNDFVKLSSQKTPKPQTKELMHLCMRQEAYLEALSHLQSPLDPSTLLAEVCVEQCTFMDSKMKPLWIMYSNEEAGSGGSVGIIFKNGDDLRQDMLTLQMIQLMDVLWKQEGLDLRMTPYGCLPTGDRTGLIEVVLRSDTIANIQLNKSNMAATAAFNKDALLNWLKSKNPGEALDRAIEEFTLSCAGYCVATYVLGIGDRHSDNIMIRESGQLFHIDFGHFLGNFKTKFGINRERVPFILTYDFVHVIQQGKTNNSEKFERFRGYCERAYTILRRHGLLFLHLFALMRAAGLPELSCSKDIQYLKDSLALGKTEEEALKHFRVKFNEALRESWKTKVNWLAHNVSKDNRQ
# T1 sequence (P27986 whole entry partner): as the sequence (P27986 whole entry partner) above
IC50 [7] [µM],"IC50 ([1]; Further Kinobeads Data, read-out: PI3Kd) [µM]","IC50 ([2]; Further Kinobeads Data, read-out: DNAPK) [µM]",PI3Ka ([3]; Further Kinobeads Data),"IC50 ([4]; Further Kinobeads Data, read-out: PI3Kb) [µM]","IC50 ([5]; Further Kinobeads Data, read-out: PI3Kg) [µM]",Compound,"IC50 [1, 8] [µM]","IC50 [2, 9] [µM]",Inhibition values (IC50) PI3Ka [3],"IC50 [4, 10] [µM]","IC50 [5, 11] [µM]",IC50 [6] [µM],"IC50 ([1]; kinobeads assay, Table 4, read-out: Inhibition values (IC50) PI3Kd) [µM]","IC50 ([2]; kinobeads assay, Table 4, read-out: Inhibition values (IC50) DNA-PK) [µM]"
,,,,,,"CCNC(=O)Nc1ccc(-c2nc3c(c(N4CCOCC4)n2)CCNC3)cc1 [Example 82, 1-ethyl-3-(4-(4-morpholino-5,6,7,8-tetrahydropyrido[3,4-d]pyrimidin-2-yl)phenyl)urea]",> 10,> 10,D (D >10 μM),> 10,> 10,0.991,,
,,,,,,"CCNC(=O)Nc1ccc(-c2nc3c(c(N4CCOC[C@@H]4C)n2)CCN(C(C)C)C3)cc1.O=CO [Example 75, (S)-1-ethyl-3-(4-(7-isopropyl-4-(3-methylmorpholino)-5,6,7,8-tetrahydropyrido[3,4-d]pyrimidin-2-yl)phenyl)urea formate]",> 10,> 10,D (D >10 μM),> 10,> 10,0.082,,
,,,,,,"CCNC(=O)Nc1ccc(-c2nc3c(c(N4CCOC[C@@H]4C)n2)CN(C(=O)OC(C)(C)C)CC3)cc1 [Example 2, (S)-tert-butyl 2-(4-(3-ethylureido)phenyl)-4-(3-methylmorpholino)-7,8-dihydropyrido[4,3-d]pyrimidine-6(5H)-carboxylate]",> 10,> 10,,,,0.122,> 10,> 10
> 10,> 10,> 10,D (D >10 μM),> 10,> 10,"CCNC(=O)Nc1cc(F)c(-c2nc3c(c(N4CCOC[C@@H]4C)n2)CN(C(=O)OCC)C3)c(F)c1 [Example 142, (S)-ethyl 2-(4-(3-ethylureido)-2,6-difluorophenyl)-4-(3-methylmorpholino)-5H-pyrrolo[3,4-d]pyrimidine-6(7H)-carboxylate]",,,,,,,,
